# Results taken from patent publication US20250145665A1, “MACROCYCLIC PEPTIDES USEFUL AS MODULATORS OF TNF ALPHA” (Bristol-Myers Squibb Company, priority 2023, published 2025).
# Starred links: 1 amine or outer side, 2 acyl side, 3 side chain; linkers in the order of their positions; H or OH if unused. Positions of bridges follow the written chain, without caps; N, C: chain ends. Non-standard residues stand in square brackets, D forms with d. Residues, ends and D or L forms follow the SMILES beside them. *: point of attachment. Bip(4'-NHCO-C6H4-3-CH2COOH) = N[C@@H](Cc1ccc(-c2ccc(NC(=O)c3cccc(CC(=O)O)c3)cc2)cc1)C(=O)O; Bip(4'-NHCO-C6H4-4-CH2COOH) = N[C@@H](Cc1ccc(-c2ccc(NC(=O)c3ccc(CC(=O)O)cc3)cc2)cc1)C(=O)O; dArg(Nω-CH2C6H4-3-CH2Gua) = N=C(N)NCc1cccc(CNC(=N)NCCC[C@@H](N)C(=O)O)c1; X21 = N=C(NCCC[C@@H](N[*:1])C(=O)[*:2])NC[C@H](O)[C@@H](O)[C@@H](O)CO; Bip(4'-NH) = O=C([C@H](Cc1ccc(-c2ccc(N[*:3])cc2)cc1)N[*:1])[*:2]; Indazole3carbonyl(1-CH2COOH) = O=C(O)Cn1nc(C(=O)*)c2ccccc21; Bip(4'-COOH) = N[C@@H](Cc1ccc(-c2ccc(C(=O)O)cc2)cc1)C(=O)O; Bip(4'-NHAc) = CC(=O)Nc1ccc(-c2ccc(C[C@H](N)C(=O)O)cc2)cc1; Indole3carbonyl(1-CH2COOH) = O=C(O)Cn1cc(C(=O)*)c2ccccc21; dArg(ω-Bn) = N=C(NCCC[C@@H](N)C(=O)O)NCc1ccccc1; Ala(morpholin-4-yl) = N[C@@H](CN1CCOCC1)C(=O)O; Benzoyl(3-OCH2COOH) = O=C(O)COc1cccc(C(=O)*)c1; Phe(3-CONH2) = NC(=O)c1cccc(C[C@H](N)C(=O)O)c1; Bip = N[C@@H](Cc1ccc(-c2ccccc2)cc1)C(=O)O; X13 = O=C([C@H](Cc1ccc[nH]1)N[*:1])[*:2]; 2Pal = N[C@@H](Cc1ccccn1)C(=O)O; 2Thi = N[C@@H](Cc1cccs1)C(=O)O; Tle = CC(C)(C)[C@H](N)C(=O)O; Sar = CNCC(=O)O
# Molecular target: TNFα (Homo sapiens, UniProt P01375)
# Assay: TNF-Induced HEK-Blue Assay
# Assay type: cell-based
# Settings: not given
# TNFα, sequence (P01375 77-233 limits assumed): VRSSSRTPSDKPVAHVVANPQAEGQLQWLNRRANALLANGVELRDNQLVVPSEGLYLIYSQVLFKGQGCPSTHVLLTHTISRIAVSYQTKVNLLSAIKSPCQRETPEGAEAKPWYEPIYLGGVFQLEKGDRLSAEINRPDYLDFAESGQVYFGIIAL
row,Structure (SMILES),IC50 [nM]
1,CC[C@H](C)[C@@H]1NC(=O)[C@@H](CCCNC(=N)NCc2cccc(CNC(=N)N)c2)NC(=O)[C@H](CC(=O)O)NC(=O)[C@@H]2CCCN2C(=O)CN(C)C(=O)[C@H](Cc2ccc(-c3ccc(NC(=O)c4nn(CC(=O)O)c5ccccc45)cc3)cc2)NC(=O)[C@H](Cc2ccc(-c3ccccc3)cc2)NC(=O)[C@H](CN2CCOCC2)NC(=O)CSC[C@@H](C(=O)NCC(N)=O)NC(=O)[C@H](CC(C)C)NC(=O)[C@H](Cc2cnc[nH]2)NC(=O)[C@H](C(C)C)NC(=O)[C@@H]2CCCN2C1=O [Example 598] ({CH2CO}-[Ala(morpholin-4-yl)][Bip][Bip(4'-NH)](Indazole3carbonyl(1-CH2COOH))[Sar]PD[dArg(Nω-CH2C6H4-3-CH2Gua)]IPVHLCG-NH2; thioether N-13),< 50
2,CC[C@H](C)[C@@H]1NC(=O)[C@@H](CCCNC(=N)NC[C@H](O)[C@@H](O)[C@@H](O)CO)NC(=O)[C@H](CC(=O)O)NC(=O)[C@@H]2CCCN2C(=O)CN(C)C(=O)[C@H](Cc2ccc(-c3ccc(NC(=O)c4nn(CC(=O)O)c5ccccc45)cc3)cc2)NC(=O)[C@H](Cc2ccc(-c3ccccc3)cc2)NC(=O)[C@H](CN2CCOCC2)NC(=O)CSC[C@@H](C(=O)NCC(N)=O)NC(=O)[C@H](CC(C)C)NC(=O)[C@H](Cc2cnc[nH]2)NC(=O)[C@H](C(C)C)NC(=O)[C@@H]2CCCN2C1=O [Example 599] ({CH2CO}-[Ala(morpholin-4-yl)][Bip][Bip(4'-NH)](Indazole3carbonyl(1-CH2COOH))[Sar]PD[X21]IPVHLCG-NH2; thioether N-13),< 50
3,CC(C)C[C@@H]1NC(=O)[C@H](Cc2cccc(C(N)=O)c2)NC(=O)[C@H](C(C)C)NC(=O)[C@@H]2CCCN2C(=O)[C@H](C(C)C)NC(=O)[C@@H](CCCNC(=N)NCc2ccccc2)NC(=O)[C@H](CC(=O)O)NC(=O)[C@H](Cc2ccc(O)cc2)NC(=O)CN(C)C(=O)[C@H](Cc2ccc(-c3ccc(NC(=O)c4nn(CC(=O)O)c5ccccc45)cc3)cc2)NC(=O)[C@H](Cc2ccc(-c3ccccc3)cc2)NC(=O)[C@H](CN2CCOCC2)NC(=O)CSC[C@@H](C(=O)NCC(N)=O)NC1=O [Example 600] ({CH2CO}-[Ala(morpholin-4-yl)][Bip][Bip(4'-NH)](Indazole3carbonyl(1-CH2COOH))[Sar]YD[dArg(ω-Bn)]VPV[Phe(3-CONH2)]LCG-NH2; thioether N-13),< 50
4,CC(C)C[C@@H]1NC(=O)[C@H](Cc2cccc(C(N)=O)c2)NC(=O)[C@H](C(C)C)NC(=O)[C@@H]2CCCN2C(=O)[C@H](C(C)C)NC(=O)[C@@H](CCCNC(=N)NCc2ccccc2)NC(=O)[C@H](CC(=O)O)NC(=O)[C@H](Cc2ccc(O)cc2)NC(=O)CN(C)C(=O)[C@H](Cc2ccc(-c3ccc(NC(=O)c4cn(CC(=O)O)c5ccccc45)cc3)cc2)NC(=O)[C@H](Cc2ccc(-c3ccccc3)cc2)NC(=O)[C@H](CN2CCOCC2)NC(=O)CSC[C@@H](C(=O)NCC(N)=O)NC1=O [Example 601] ({CH2CO}-[Ala(morpholin-4-yl)][Bip][Bip(4'-NH)](Indole3carbonyl(1-CH2COOH))[Sar]YD[dArg(ω-Bn)]VPV[Phe(3-CONH2)]LCG-NH2; thioether N-13),< 50

# Same assay, conditions: HEK-Blue-CD40L cells, NF-kB-driven secreted alkaline phosphatase reporter; TNFα 0.5 ng/ml; 18 h; read-out: TNF induced HEK-Blue assay IC50 value
row,Structure (SMILES),IC50 [nM]
1,CC[C@H](C)[C@@H]1NC(=O)[C@@H](CCCNC(=N)N)NC(=O)[C@H](CC(=O)O)NC(=O)[C@H](Cc2cnc[nH]2)NC(=O)CN(C)C(=O)[C@H](Cc2ccc(-c3ccc(NC(=O)c4cccc(OCC(=O)O)c4)cc3)cc2)NC(=O)[C@H](Cc2ccc(-c3ccc(C(=O)O)cc3)cc2)NC(=O)[C@H](C(C)(C)C)NC(=O)CSC[C@@H](C(=O)NCC(N)=O)NC(=O)[C@H](CC(C)C)NC(=O)[C@H](Cc2cccc(C(N)=O)c2)NC(=O)[C@H](C(C)C)NC(=O)[C@@H]2CCCN2C1=O [Example 591] ({CH2CO}-[Tle][Bip(4'-COOH)][Bip(4'-NH)](Benzoyl(3-OCH2COOH))[Sar]HD[dR]IPV[Phe(3-CONH2)]LCG-NH2; thioether N-13),< 50
2,CC(C)C[C@@H]1NC(=O)[C@H](Cc2ccc[nH]2)NC(=O)[C@H](C(C)C)NC(=O)[C@@H]2CCCN2C(=O)[C@H](C(C)C)NC(=O)[C@@H](CCCNC(=N)N)NC(=O)[C@H](CC(=O)O)NC(=O)[C@H](Cc2cnc[nH]2)NC(=O)CN(C)C(=O)[C@H](Cc2ccc(-c3ccc(NC(=O)c4cccc(CC(=O)O)c4)cc3)cc2)NC(=O)[C@H](Cc2ccc(-c3ccc(C(=O)O)cc3)cc2)NC(=O)[C@H](C(C)(C)C)NC(=O)CSC[C@@H](C(=O)NCC(N)=O)NC1=O [Example 597] ({CH2CO}-[Tle][Bip(4'-COOH)][Bip(4'-NHCO-C6H4-3-CH2COOH)][Sar]HD[dR]VPV[X13]LCG-NH2; thioether N-13),< 50
3,CC(C)C[C@@H]1NC(=O)[C@H](Cc2cccc(C(N)=O)c2)NC(=O)[C@H](C(C)C)NC(=O)[C@@H]2CCCN2C(=O)[C@H](C(C)C)NC(=O)[C@@H](CCCNC(=N)NCc2ccccc2)NC(=O)[C@H](CC(=O)O)NC(=O)[C@H](Cc2ccc(O)cc2)NC(=O)CN(C)C(=O)[C@H](Cc2ccc(-c3ccc(NC(=O)c4ccc(CC(=O)O)cc4)cc3)cc2)NC(=O)[C@H](Cc2ccc(-c3ccccc3)cc2)NC(=O)[C@H](CN2CCOCC2)NC(=O)CSC[C@@H](C(=O)NCC(N)=O)NC1=O [Example 602] ({CH2CO}-[Ala(morpholin-4-yl)][Bip][Bip(4'-NHCO-C6H4-4-CH2COOH)][Sar]YD[dArg(ω-Bn)]VPV[Phe(3-CONH2)]LCG-NH2; thioether N-13),< 50

# Now from value to compound:
row,IC50 [nM],Structure (SMILES)
1,< 50,CC(C)C[C@@H]1NC(=O)[C@H](Cc2cccc(C(N)=O)c2)NC(=O)[C@H](C(C)C)NC(=O)[C@@H]2CCCN2C(=O)[C@H](C(C)C)NC(=O)[C@@H](CCCNC(=N)NCc2ccccc2)NC(=O)[C@H](CC(=O)O)NC(=O)[C@H](Cc2ccc(O)cc2)NC(=O)CN(C)C(=O)[C@H](Cc2ccc(-c3ccc(NC(=O)c4cccc(CC(=O)O)c4)cc3)cc2)NC(=O)[C@H](Cc2ccc(-c3ccccc3)cc2)NC(=O)[C@H](CN2CCOCC2)NC(=O)CSC[C@@H](C(=O)NCC(N)=O)NC1=O [Example 603] ({CH2CO}-[Ala(morpholin-4-yl)][Bip][Bip(4'-NHCO-C6H4-3-CH2COOH)][Sar]YD[dArg(ω-Bn)]VPV[Phe(3-CONH2)]LCG-NH2; thioether N-13)
2,< 50,CC[C@H](C)[C@@H]1NC(=O)[C@@H](CCCNC(=N)N)NC(=O)[C@H](CC(=O)O)NC(=O)[C@H](Cc2ccccn2)NC(=O)CN(C)C(=O)[C@H](Cc2ccc(-c3ccc(NC(C)=O)cc3)cc2)NC(=O)[C@H](Cc2ccc(-c3ccccc3)cc2)NC(=O)[C@H](CN2CCOCC2)NC(=O)CSC[C@@H](C(=O)NCC(N)=O)NC(=O)[C@H](CC(C)C)NC(=O)[C@H](Cc2cccs2)NC(=O)[C@H](C(C)C)NC(=O)[C@@H]2CCCN2C1=O [Example 604] ({CH2CO}-[Ala(morpholin-4-yl)][Bip][Bip(4'-NHAc)][Sar][2Pal]D[dR]IPV[2Thi]LCG-NH2; thioether N-13)
3,200 to 2000,CC(=O)Nc1ccc(-c2ccc(C[C@@H]3NC(=O)[C@H](Cc4ccc(-c5ccccc5)cc4)NC(=O)[C@H](C(C)(C)C)NC(=O)CSC[C@@H](C(=O)NCC(N)=O)NC(=O)[C@H](CC(C)C)NC(=O)[C@H](Cc4cccs4)NC(=O)[C@H](C(C)C)NC(=O)[C@@H]4CCCN4C(=O)[C@H](C(C)C)NC(=O)[C@@H](CCCNC(=N)N)NC(=O)[C@H](CC(=O)O)NC(=O)[C@H](Cc4ccccn4)NC(=O)CN(C)C3=O)cc2)cc1 [Example 605] ({CH2CO}-[Tle][Bip][Bip(4'-NHAc)][Sar][2Pal]D[dR]VPV[2Thi]LCG-NH2; thioether N-13)
4,< 50,CC(C)C[C@@H]1NC(=O)[C@H](Cc2cccs2)NC(=O)[C@H](C(C)C)NC(=O)[C@@H]2CCCN2C(=O)[C@H](C(C)C)NC(=O)[C@@H](CCCNC(=N)N)NC(=O)[C@H](CC(=O)O)NC(=O)[C@H](Cc2ccccn2)NC(=O)CN(C)C(=O)[C@H](Cc2ccc(-c3ccc(NC(=O)c4cccc(OCC(=O)O)c4)cc3)cc2)NC(=O)[C@H](Cc2ccc(-c3ccccc3)cc2)NC(=O)[C@H](CN2CCOCC2)NC(=O)CSC[C@@H](C(=O)NCC(N)=O)NC1=O [Example 606] ({CH2CO}-[Ala(morpholin-4-yl)][Bip][Bip(4'-NH)](Benzoyl(3-OCH2COOH))[Sar][2Pal]D[dR]VPV[2Thi]LCG-NH2; thioether N-13)
5,< 50,CC(C)C[C@@H]1NC(=O)[C@H](Cc2cccs2)NC(=O)[C@H](C(C)C)NC(=O)[C@@H]2CCCN2C(=O)[C@H](C(C)C)NC(=O)[C@@H](CCCNC(=N)N)NC(=O)[C@H](CC(=O)O)NC(=O)[C@H](Cc2ccccn2)NC(=O)CN(C)C(=O)[C@H](Cc2ccc(-c3ccc(NC(=O)c4ccc(CC(=O)O)cc4)cc3)cc2)NC(=O)[C@H](Cc2ccc(-c3ccccc3)cc2)NC(=O)[C@H](CN2CCOCC2)NC(=O)CSC[C@@H](C(=O)NCC(N)=O)NC1=O [Example 607] ({CH2CO}-[Ala(morpholin-4-yl)][Bip][Bip(4'-NHCO-C6H4-4-CH2COOH)][Sar][2Pal]D[dR]VPV[2Thi]LCG-NH2; thioether N-13)
6,< 50,CC(C)C[C@@H]1NC(=O)[C@H](Cc2cccs2)NC(=O)[C@H](C(C)C)NC(=O)[C@@H]2CCCN2C(=O)[C@H](C(C)C)NC(=O)[C@@H](CCCNC(=N)N)NC(=O)[C@H](CC(=O)O)NC(=O)[C@H](Cc2ccccn2)NC(=O)CN(C)C(=O)[C@H](Cc2ccc(-c3ccc(NC(=O)c4cccc(CC(=O)O)c4)cc3)cc2)NC(=O)[C@H](Cc2ccc(-c3ccccc3)cc2)NC(=O)[C@H](CN2CCOCC2)NC(=O)CSC[C@@H](C(=O)NCC(N)=O)NC1=O [Example 608] ({CH2CO}-[Ala(morpholin-4-yl)][Bip][Bip(4'-NHCO-C6H4-3-CH2COOH)][Sar][2Pal]D[dR]VPV[2Thi]LCG-NH2; thioether N-13)
7,< 50,CC(C)C[C@@H]1NC(=O)[C@H](Cc2cccs2)NC(=O)[C@H](C(C)C)NC(=O)[C@@H]2CCCN2C(=O)[C@H](C(C)C)NC(=O)[C@@H](CCCNC(=N)N)NC(=O)[C@H](CC(=O)O)NC(=O)[C@H](Cc2ccccn2)NC(=O)CN(C)C(=O)[C@H](Cc2ccc(-c3ccc(NC(=O)c4cccc(OCC(=O)O)c4)cc3)cc2)NC(=O)[C@H](Cc2ccc(-c3ccc(C(=O)O)cc3)cc2)NC(=O)[C@H](CN2CCOCC2)NC(=O)CSC[C@@H](C(=O)NCC(N)=O)NC1=O [Example 609] ({CH2CO}-[Ala(morpholin-4-yl)][Bip(4'-COOH)][Bip(4'-NH)](Benzoyl(3-OCH2COOH))[Sar][2Pal]D[dR]VPV[2Thi]LCG-NH2; thioether N-13)
